What was measured:
Format in all cases: cell-based
[1] = target: T1, dopamine transporter (DAT) (Homo sapiens, UniProt Q01959); assay: Dopamine reuptake inhibition, [3H]-DA, HEK-293 cells transfected with dopamine transporter cDNA; details: for Triple reuptake inhibition (Ratio %) DAT: compound 1 μM, 20-30 nM [3H]-DA, relative to control without compound = 100%, lower value = more inhibition; for IC50: concentration at which Ratio % is 50%, 6 concentrations 1 nM to 1 μM, read-out: Triple reuptake inhibition (IC50, μM) DAT
T1 construct: expressed in transfected cells; host or cells: HEK-293
T1 sequence (Q01959 whole entry, species assumed): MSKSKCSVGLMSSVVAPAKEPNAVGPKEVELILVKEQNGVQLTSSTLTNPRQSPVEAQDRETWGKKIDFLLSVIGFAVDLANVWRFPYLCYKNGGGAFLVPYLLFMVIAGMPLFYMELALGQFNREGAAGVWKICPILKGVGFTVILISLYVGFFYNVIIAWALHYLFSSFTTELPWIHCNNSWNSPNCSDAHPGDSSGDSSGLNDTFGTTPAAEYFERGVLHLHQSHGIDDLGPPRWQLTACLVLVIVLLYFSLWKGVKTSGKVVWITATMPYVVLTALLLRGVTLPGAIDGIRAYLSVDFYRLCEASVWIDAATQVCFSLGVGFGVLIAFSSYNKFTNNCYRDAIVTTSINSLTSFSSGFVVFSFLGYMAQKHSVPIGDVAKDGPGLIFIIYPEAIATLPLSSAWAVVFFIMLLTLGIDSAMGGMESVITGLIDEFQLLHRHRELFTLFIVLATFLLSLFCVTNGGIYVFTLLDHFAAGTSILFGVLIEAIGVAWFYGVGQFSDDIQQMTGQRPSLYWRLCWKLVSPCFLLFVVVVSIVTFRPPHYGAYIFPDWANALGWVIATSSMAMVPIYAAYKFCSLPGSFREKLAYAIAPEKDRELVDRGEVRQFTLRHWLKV
Protocol: (§1) In order to evaluate the reuptake inhibitory effect of the compounds of the Examples according to the present invention on serotonin, norepinephrine and dopamine, the experiments below were performed, and the results are shown in Table 17.
(§2) To evaluate the reuptake inhibition effect on dopamine, the dopamine transporter cDNA was transfected using the HEK-293 cell line, and then sub-seeded in a 24 well plate the next day. After removing the medium, each compound of the Examples or Comparative Examples diluted to 1 μM in uptake buffer was added to a concentration of 200 μl/well and cultured at 37° C. for 15 minutes. 100 μl of uptake buffer containing 20-30 nM [3H]-DA was added and cultured at 37° C. for 5 minutes. The reaction solution was quickly removed and washed three times with 1 ml ice-cold uptake buffer. After dissolving the resultant in 1% SDS (0.5 ml), the degree of binding of radioisotope-labeled dopamine to the transporter was measured.
(§3) In addition, when evaluating the reuptake inhibitory effect on dopamine, norepinephrine, and serotonin, the same method was performed without treating each compound of the Examples or Comparative Examples as a control, the degree of binding of radioisotope-labeled dopamine, norepinephrine, and serotonin to the transporter was measured, and by using this as a reference (100%), the triple reuptake inhibitory effect was evaluated as a relative ratio (Ratio %). That is, in the control group, the binding of dopamine, norepinephrine, and serotonin to transporters is not inhibited, but when each compound of the Examples is treated and thus the binding is inhibited, the Ratio % value decreases.
(§4) Meanwhile, the Ratio % values were compared, and in the case of the compounds of Examples 6, 10, 13, 14, 17, 20, 21, 22, 30, 31, 32, 34, 36, 38, 39, 40, 54, 55, 56, 57, 58 and 73 with excellent reuptake inhibitory effects on dopamine, norepinephrine and serotonin, the concentration at which the Ratio % is 50% was calculated using a total of 6 concentrations (1 nM, 5 nM, 10 nM, 50 nM, 100 nM, and 1 μM) and expressed as IC50.

[2] = target: T2, norepinephrine transporter (NET) (Homo sapiens, UniProt P23975); assay: Norepinephrine reuptake inhibition, [3H]-NE, HEK-293 cells transfected with NE transporter cDNA; details: for Triple reuptake inhibition (Ratio %) NET: compound 1 μM, [3H]-NE, relative to control without compound = 100%, lower value = more inhibition; for IC50: concentration at which Ratio % is 50%, 6 concentrations 1 nM to 1 μM, read-out: Triple reuptake inhibition (IC50, μM) NET
T2 construct: expressed in transfected cells; host or cells: HEK-293
T2 sequence (P23975 whole entry, species assumed): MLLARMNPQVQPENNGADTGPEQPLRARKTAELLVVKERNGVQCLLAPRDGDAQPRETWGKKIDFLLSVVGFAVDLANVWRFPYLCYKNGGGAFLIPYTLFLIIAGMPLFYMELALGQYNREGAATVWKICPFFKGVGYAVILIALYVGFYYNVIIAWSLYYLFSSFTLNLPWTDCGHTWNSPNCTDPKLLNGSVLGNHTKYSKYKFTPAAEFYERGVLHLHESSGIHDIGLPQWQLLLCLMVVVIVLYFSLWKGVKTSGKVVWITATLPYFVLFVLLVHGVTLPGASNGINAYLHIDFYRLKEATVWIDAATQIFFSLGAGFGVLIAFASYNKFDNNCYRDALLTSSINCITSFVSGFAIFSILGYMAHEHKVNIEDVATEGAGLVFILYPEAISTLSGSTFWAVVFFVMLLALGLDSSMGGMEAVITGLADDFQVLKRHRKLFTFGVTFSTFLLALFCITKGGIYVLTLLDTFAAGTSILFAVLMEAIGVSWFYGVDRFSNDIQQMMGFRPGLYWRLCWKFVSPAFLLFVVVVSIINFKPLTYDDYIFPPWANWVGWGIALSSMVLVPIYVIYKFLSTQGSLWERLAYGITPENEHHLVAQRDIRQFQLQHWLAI
Protocol: as §1, §2
(§5) For norepinephrine (NE) and serotonin (5-HT), the degree of binding of radioisotope-labeled norepinephrine or serotonin to the transporter was measured in the same manner as above, except that cells transfected with NE or 5-HT transporter cDNA were used and [3H]—NE or [3H]-5-HT was used as a substrate.
as §3, §4

[3] = target: T3, serotonin transporter (SERT) (Homo sapiens, UniProt P31645); assay: Serotonin reuptake inhibition, [3H]-5-HT, HEK-293 cells transfected with 5-HT transporter cDNA; details: for Triple reuptake inhibition (Ratio %) SERT: compound 1 μM, [3H]-5-HT, relative to control without compound = 100%, lower value = more inhibition; for IC50: concentration at which Ratio % is 50%, 6 concentrations 1 nM to 1 μM, read-out: Triple reuptake inhibition (IC50, μM) SERT
T3 construct: expressed in transfected cells; host or cells: HEK-293
T3 sequence (P31645 whole entry, species assumed): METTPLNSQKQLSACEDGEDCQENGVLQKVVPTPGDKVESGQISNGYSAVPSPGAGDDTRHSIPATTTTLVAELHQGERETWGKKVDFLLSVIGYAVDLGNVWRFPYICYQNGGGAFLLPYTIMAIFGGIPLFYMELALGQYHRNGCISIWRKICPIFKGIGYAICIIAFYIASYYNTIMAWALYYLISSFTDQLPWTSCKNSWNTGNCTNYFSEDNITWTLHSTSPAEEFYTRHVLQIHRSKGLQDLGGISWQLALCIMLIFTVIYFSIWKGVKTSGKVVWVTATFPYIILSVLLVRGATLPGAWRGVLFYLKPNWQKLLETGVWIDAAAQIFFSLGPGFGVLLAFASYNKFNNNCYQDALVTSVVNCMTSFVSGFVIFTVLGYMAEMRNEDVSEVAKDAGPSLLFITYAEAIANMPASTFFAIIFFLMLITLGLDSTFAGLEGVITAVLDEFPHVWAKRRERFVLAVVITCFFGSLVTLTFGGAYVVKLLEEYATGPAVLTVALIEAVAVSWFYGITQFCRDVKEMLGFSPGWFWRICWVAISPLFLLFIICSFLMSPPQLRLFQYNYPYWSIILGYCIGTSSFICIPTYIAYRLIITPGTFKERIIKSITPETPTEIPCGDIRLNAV
Protocol: as §1, §2, §5, §3, §4

| Compound | Triple reuptake inhibition (Ratio %) DAT [1] [%] | Triple reuptake inhibition (Ratio %) NET [2] [%] | Triple reuptake inhibition (Ratio %) SERT [3] [%] | IC50 [1] [µM] | IC50 [2] [µM] | IC50 [3] [µM] |
| --- | --- | --- | --- | --- | --- | --- |
| O=S(=O)(NCCN1CCC(Cc2ccccc2)CC1)c1ccc(Oc2ccccc2)cc1 [Example 3, N-(2-(4-benzylpiperidin-1-yl)ethyl)-4-phenoxybenzenesulfonamide] | 50.09 | 56.36 | 62.10 | – | – | – |
| CCCCOc1ccc(S(=O)(=O)NCCCN2CCC(Cc3cccc(Cl)c3)CC2)cc1 [Example 31, 4-butoxy-N-(3-(4-(3-chlorobenzyl)piperidin-1-yl)propyl)benzenesulfonamide] | – | 18.93 | 14.27 | 1.05 | 0.041 | 0.216 |
| CCCCOc1ccc(S(=O)(=O)NCCCN2CCC(c3ccc(Cl)c(Cl)c3)CC2)cc1 [Example 22, 4-butoxy-N-(3-(4-(3,4-dichlorophenyl)piperidinyl)propyl)benzenesulfonamide] | 31.02 | 36.85 | 38.07 | 1.51 | 0.55 | 0.609 |
| CCCCOc1ccc(S(=O)(=O)NCCCN2CCC(Cc3ccc(C)cc3)CC2)cc1 [Example 29, 4-butoxy-N-(3-(4-(4-methylbenzyl)piperidin-1-yl)propyl)benzenesulfonamide] | 89.50 | 54.04 | 39.39 | – | – | – |
| CCCCOc1ccc(S(=O)(=O)NCCN2CCC(Cc3ccc(Cl)c(Cl)c3)CC2)cc1 [Example 4, 4-butoxy-N-(2-(4-(3,4-dichlorobenzyl)piperidin-1-yl)ethyl)benzenesulfonamide] | 88.71 | 80.47 | 76.57 | – | – | – |
| CCCCNc1ccc(S(=O)(=O)NCCCN2CCC(Cc3ccccc3)CC2)cc1 [Example 16, N-(3-(4-benzylpiperidin-1-yl)propyl)-4-(butylamino)benzenesulfonamide] | 93.59 | 53.45 | 74.25 | – | – | – |
| O=S(=O)(NCCCCN1CCC(Cc2ccccc2)CC1)c1ccc(-c2ccccc2)cc1 [Example 77, N-(4-(4-benzylpiperidin-1-yl)butyl)-[1,1′-biphenyl]-4-sulfonamide] | 25.71 | 44.79 | 40.45 | – | – | – |
| CCCCOc1ccc(S(=O)(=O)NCCCN2CCC(c3c[nH]c4ccccc34)CC2)cc1 [Example 11, N-(3-(4-(1H-indol-3-yl)piperidin-1-yl)propyl)-4-butoxybenzenesulfonamide] | 73.16 | 73.79 | 18.04 | – | – | – |
| O=S(=O)(NCCN1CCC(Cc2ccccc2)CC1)c1ccc2ccccc2c1 [Example 38, N-(2-(4-benzylpiperidin-1-yl)ethyl) naphthalen-2-sulfonamide] | 56.59 | 21.54 | 34.20 | 0.493 | – | – |
| CCCCOc1ccc(S(=O)(=O)NCCCN2CCC(Cc3ccc(Cl)c(Cl)c3)CC2)cc1 [Example 20, 4-butoxy-N-(3-(4-(3,4-dichlorobenzyl)piperidin-1-yl)propyl)benzenesulfonamide] | 56.29 | 30.29 | 40.46 | 2.16 | 0.221 | 0.504 |

Second part, the compound after the results:

| Triple reuptake inhibition (Ratio %) DAT [1] [%] | Triple reuptake inhibition (Ratio %) NET [2] [%] | Triple reuptake inhibition (Ratio %) SERT [3] [%] | IC50 [1] [µM] | IC50 [2] [µM] | IC50 [3] [µM] | Compound |
| --- | --- | --- | --- | --- | --- | --- |
| 68.53 | 64.45 | 47.19 | – | – | – | O=S(=O)(NCCN1CCN(c2ccc(Cl)cc2)CC1)c1cccc2ccccc12 [Example 51, N-(2-(4-(4-chlorophenyl)piperazinyl)ethyl)naphthalen-1-sulfonamide] |
| 76.23 | 44.79 | 61.48 | – | – | – | O=S(=O)(NCCCN1CCC(CCCc2ccccc2)CC1)c1ccc(-c2ccc(F)cc2)cc1 [Example 74, 4′-fluoro-N-(3-(4-(3-phenylpropyl)piperidin-1-yl)propyl)-[1,1′-biphenyl]-4-sulfonamide] |
| 55.51 | 44.79 | 50.76 | 0.647 | 0.429 | 1.84 | O=S(=O)(NCCCN1CCC(Cc2ccccc2)CC1)c1ccc(-c2ccc(F)cc2)cc1 [Example 58, N-(3-(4-benzylpiperidin-1-yl)propyl)-4′-fluoro-[1,1′-biphenyl]-4-sulfonamide] |
| 30.48 | 79.12 | 72.85 | 0.843 | – | – | O=S(=O)(NCCN1CCC(Cc2ccccc2)CC1)c1cc2ccccc2[nH]1 [Example 36, N-(2-(4-benzylpiperidin-1-yl)ethyl)-1H-indol-2-sulfonamide] |
| 40.96 | 58.66 | 9.28 | 5.17 | 1.56 | 0.057 | O=C(CCN1CCCCC1)Nc1ccc(S(=O)(=O)NCCCN2CCC(Cc3ccccc3)CC2)cc1 [Example 17, N-(4-(N-(3-(4-benzylpiperidin-1-yl)propyl)sulfamoyl)phenyl)-3-(piperidin-1-yl)propaneamide] |
| 20.60 | 30.25 | 21.60 | – | – | – | O=S(=O)(NCCCCN1CCC(CCCc2ccccc2)CC1)c1ccc(-c2ccccc2)cc1 [Example 79, N-(4-(4-(3-phenylpropyl)piperidin-1-yl)butyl)-[1,1′-biphenyl]-4-sulfonamide] |
| 13.09 | 30.54 | 53.66 | 4.48 | 1.35 | 0.345 | O=S(=O)(NCCCN1CCC(Cc2ccccc2)CC1)c1ccc2ccccc2n1 [Example 57, N-(3-(4-benzylpiperidin-1-yl)propyl)quinolin-2-sulfonamide] |
| 25.55 | 11.04 | 41.46 | 0.872 | 0.112 | 1.08 | O=S(=O)(NCCCN1CCC(Cc2ccccc2)CC1)c1ccc(Oc2ccccc2)cc1 [Example 13, N-(3-(4-benzylpiperidin-1-yl)propyl)-4-phenoxybenzenesulfonamide] |
| 68.53 | 64.45 | 47.19 | – | – | – | O=S(=O)(NCCN1CCN(c2ccc(Cl)cc2)CC1)c1ccc2ccccc2n1 [Example 53, N-(2-(4-(4-chlorophenyl)piperazinyl)ethyl)quinolin-2-sulfonamide] |
| 31.26 | 18.46 | 15.77 | 1.16 | – | – | O=S(=O)(NCCN1CCC(Cc2ccccc2)CC1)c1cccc2ccccc12 [Example 39, N-(2-(4-benzylpiperidin-1-yl)ethyl)naphthalen-1-sulfonamide] |

— patent US20230212121A1 (DAEGU-GYEONGBUK MEDICAL INNOVATION FOUNDATION, priority 2020, published 2023)
